Test results reported in patent publication US10233186B2, “Inhibitors of activin receptor-like kinase” (BLUEPRINT MEDICINES CORPORATION, priority 2016, dated 2019).
Read-outs that look alike come from different tables or passages of the source.

Assays:
human ALK2 R206H = target: T1, human ALK2 R206H (Homo sapiens, UniProt Q04771, R206H); assay: Cell-based ALK2-R206H cell activity assay (Smad1-Ser463/Ser465 phosphorylation by AlphaLISA in HEK293-ALK2-R206H cells)
T1 construct: expressed in transfected cells; host or cells: HEK293 (ATCC CRL1573), lentivirus transduction, blasticidin selection
T1 sequence (Q04771 21-509 R206H): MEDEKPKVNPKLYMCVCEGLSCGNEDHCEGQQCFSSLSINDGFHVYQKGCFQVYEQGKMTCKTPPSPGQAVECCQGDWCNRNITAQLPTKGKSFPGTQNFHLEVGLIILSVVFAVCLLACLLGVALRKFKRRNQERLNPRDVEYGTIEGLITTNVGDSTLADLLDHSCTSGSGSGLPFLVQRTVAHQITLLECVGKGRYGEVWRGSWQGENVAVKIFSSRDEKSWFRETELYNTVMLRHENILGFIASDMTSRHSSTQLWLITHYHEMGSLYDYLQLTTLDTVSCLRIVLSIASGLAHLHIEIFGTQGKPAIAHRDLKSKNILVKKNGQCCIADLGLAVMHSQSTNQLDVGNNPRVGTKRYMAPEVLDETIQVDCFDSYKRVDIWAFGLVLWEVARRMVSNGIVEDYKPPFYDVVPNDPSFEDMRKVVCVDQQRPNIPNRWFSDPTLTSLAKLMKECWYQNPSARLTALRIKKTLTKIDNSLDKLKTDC
In short: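 Stable HEK293 cells expressing C-terminally FLAG-tagged human ALK2 R206H (lentiviral, blasticidin-selected) were treated with compounds in 10-point, 3-fold dilutions from 10 μM or 1 μM top, in duplicate. Smad1 Ser463/Ser465 phosphorylation was read by AlphaLISA.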

[1] = target: T2, ALK2 R206H (GST-tagged mutant ALK2) (Homo sapiens, UniProt Q04771, R206H); assay: ALK binding assay (LANTHASCREEN TR-FRET competitive binding, displacement of Kinase Tracer 178)
T2 construct: purchased Carna Bioscience or ThermoFisher 09-148 or PV6232
T2 sequence (Q04771 21-509 R206H): T1 sequence (Q04771 21-509 R206H)

[2] = read-out: Cell Line (Cell Assay IC50)
[3] = ALK2 R206H, LANTHASCREEN TR-FRET competitive binding, read-out: Binding Assay (IC50)

Structure (SMILES)	IC50 (human ALK2 R206H; [2]) [nM]	IC50 [1, 3] [nM]	IC50 (human ALK2 R206H; Cell Line (Cell Assay IC50)) [nM]	IC50 [1] [nM]
CC(C)N1CC[C@H](OC(F)F)[C@@H](c2ccc(-c3cc4c(N5CCN(C(=O)C6CC6)CC5)ccnn4c3)cc2)C1 [Compound 848]	< 100	< 10		
CC(C)N1CC[C@@H](OC(F)F)[C@H](c2ccc(-c3cc4c(N5CCN(C(=O)C6CC6)CC5)ccnn4c3)cc2)C1 [Compound 849]	< 100	< 10		
COC1(c2ccc(-c3cc4c(N5CCN(C(=O)NC(C)C)CC5)ccnn4c3)nc2)CCN(C(C)CF)CC1 (centres unmarked) [Compound 850]	< 100	< 10		
CC(C)N1CCC(c2ccc(-c3cc4c(N5CCN(C(=O)Nc6ccccc6F)CC5)ccnn4c3)cc2)CC1 [Compound 851]	100 to 500	< 10		
COC1(c2ccc(-c3cc4c(N5CCN(C(=O)NC(C)C)CC5)ccnn4c3)c(C#N)c2)CCN(C(C)C)CC1 [Compound 852]	< 100	< 10		
CC(=O)N1CC(OC(=O)N2CCN(c3ccnn4cc(-c5ccc([C@@H]6CCCN(C(C)C)C6)cc5)cc34)CC2)C1 [Compound 853]	100 to 500	< 10		
CCOC1(c2ccc(-c3cc4c(N5CCN(C(=O)OCCC#N)CC5)ccnn4c3)nc2)CCN(C(C)C)CC1 [Compound 854]	< 100	< 10		
CCOC1(c2ccc(-c3cc4c(N5CCN(C(=O)OC6COC6)CC5)ccnn4c3)nc2)CCN(C2CC2)CC1 [Compound 855]	< 100	< 10		
CCOC1(c2ccc(-c3cc4c(N5CCN(C(=O)NC(C)C)CC5)ccnn4c3)cc2)CCN(C2COC2)CC1 [Compound 856]	< 100	< 10		
CCOC1(c2ccc(-c3cc4c(N5CCN(C(=O)OC6COC6)CC5)ccnn4c3)cc2)CCN(C(C)C)CC1 [Compound 857]	< 100	< 10		
CCOC1(c2ccc(-c3cc4c(N5CCN(C(=O)NC(C)C)CC5)ccnn4c3)nc2)CCN(C2COC2)CC1 [Compound 858]	< 100	< 10		
CC(C)N1CCC(COC(F)F)(c2ccc(-c3cc4c(N5CCN(C(=O)C6CC6)CC5)ccnn4c3)cc2)CC1 [Compound 859]	< 100	< 10		
CCOC1(c2ccc(-c3cc4c(N5CCN(C(=O)NC(C)C)CC5)ccnn4c3)nc2)CCN(C(C)CF)CC1 (centres unmarked) [Compound 860]	< 100	< 10		
CCOC1(c2ccc(-c3cc4c(N5CCN(C(=O)NC(C)C)CC5)ccnn4c3)nc2)CCN(C[C@H](C)F)CC1 [Compound 861]	< 100	< 10		
COC1(c2ccc(-c3cc4c(N5CCN(C(=O)OC6COC6)CC5)ccnn4c3)nc2)CCN(C(C)CF)CC1 (centres unmarked) [Compound 863]	< 100	< 10		
CCOC1(c2ccc(-c3cc4c(N5CCN(C(=O)O[C@H](C)CF)CC5)ccnn4c3)nc2)CCN(C(C)C)CC1 [Compound 864]	< 100	< 10		
CCOC1(c2ccc(-c3cc4c(N5CCN(C(=O)OC[C@H](C)F)CC5)ccnn4c3)nc2)CCN(C(C)C)CC1 [Compound 865]	< 100	< 10		
CCOC1(c2ccc(-c3cc4c(N5CCN(C(=O)OC[C@@H](C)F)CC5)ccnn4c3)nc2)CCN(C(C)C)CC1 [Compound 867]	< 100	< 10		
CC(C)NC(=O)N1CCN(c2ccnn3cc(-c4ccc([C@H]5CN(C(C)C)CC[C@@H]5OC(F)F)cc4)cc23)CC1 [Compound 868]	< 100	< 10		
CC(C)NC(=O)N1CCN(c2ccnn3cc(-c4ccc([C@@H]5CN(C(C)C)CC[C@H]5OC(F)F)cc4)cc23)CC1 [Compound 869]	< 100	< 10		
COC1(c2ccc(-c3cc4c(N5CCN(C(=O)[C@H]6C[C@H](C#N)C6)CC5)ccnn4c3)nc2)CCN(C2COC2)CC1 [Compound 870]	< 100	< 10		
CCOC1(c2ccc(-c3cc4c(N5CCN(C(=O)[C@H]6C[C@H](C#N)C6)CC5)ccnn4c3)nc2)CCN(C(C)C)CC1 [Compound 871]	< 100	< 10		

Structure (SMILES)	IC50 (human ALK2 R206H; [2]) [nM]	IC50 [1, 3] [nM]	IC50 (human ALK2 R206H; Cell Line (Cell Assay IC50)) [nM]	IC50 [1] [nM]
CCOC1(c2ccc(-c3cc4c(N5CCN(C(=O)OCC(F)F)CC5)ccnn4c3)nc2)CCN(C(C)C)CC1 [Compound 872]	< 100	< 10		
COC1(c2ccc(-c3cc4c(N5CCN(C(=O)OC6COC6)CC5)ccnn4c3)c(C#N)c2)CCN(C(C)C)CC1 [Compound 873]	< 100	< 10		
COC(=O)C1(c2ccc(-c3cc4c(N5CCN(C(=O)OC6COC6)CC5)ccnn4c3)cc2)CCN(C(C)C)CC1 [Compound 874]			100 to 500	< 10
CCOC1(c2ccc(-c3cc4c(N5CCN(C(=O)OC6COC6)CC5)ccnn4c3)nc2)CCN(C2COC2)CC1 [Compound 875]	< 100	< 10		
CCOC1(c2ccc(-c3cc4c(N5CCN(C(=O)O[C@@H]6CCOC6)CC5)ccnn4c3)nc2)CCN(C(C)C)CC1 [Compound 876]	< 100	< 10		
CCOC1(c2ccc(-c3cc4c(N5CCN(C(=O)O[C@H]6CCOC6)CC5)ccnn4c3)nc2)CCN(C(C)C)CC1 [Compound 877]	< 100	< 10		
CCOC1(c2ccc(-c3cc4c(N5CCN(C(=O)OC6(C)COC6)CC5)ccnn4c3)nc2)CCN(C(C)C)CC1 [Compound 878]	< 100	< 10		
CCOC1(c2ccc(-c3cc4c(N5CCN(C(=O)OC6COC6C)CC5)ccnn4c3)nc2)CCN(C(C)C)CC1 (centres unmarked) [Compound 879]	< 100	< 10		
CCOC1(c2ccc(-c3cc4c(N5CCN(C(=O)OC6COC6)CC5)ccnn4c3)nc2)CCN(CC(C)F)CC1 (centres unmarked) [Compound 880]	< 100	< 10		
CCOC1(c2ccc(-c3cc4c(N5CCN(C(=O)OC6COC6)CC5)ccnn4c3)nc2)CCN(C[C@H](C)F)CC1 [Compound 882]	< 100	< 10		
COC1(c2ccc(-c3cc4c(N5CCN(C(=O)C6CC6)CC5)ccnn4c3)cc2)CCN([C@@H](C)COC(F)F)CC1 [Compound 883]	< 100	< 10		
COC1(c2ccc(-c3cc4c(N5CCN(C(=O)C6CC6)CC5)ccnn4c3)cc2)CCN([C@H](C)COC(F)F)CC1 [Compound 884]	< 100	< 10		
COC1(c2ccc(-c3cc4c(N5CCN(C(=O)C6CC6)CC5)ccnn4c3)nc2)CCN([C@H](C)COC(F)F)CC1 [Compound 885]	< 100	< 10		
COC1(c2ccc(-c3cc4c(N5CCN(C(=O)C6CC6)CC5)ccnn4c3)nc2)CCN([C@@H](C)COC(F)F)CC1 [Compound 886]	< 100	< 10		
CC(C)NC(=O)N1CCN(c2ccnn3cc(-c4ccc(C5(COC(F)F)CCN(C(C)C)CC5)cc4)cc23)CC1 [Compound 887]	< 100	< 10		
CC(C)N1CC[C@H](OC(F)F)[C@@H](c2ccc(-c3cc4c(N5CCN(C(=O)OC6COC6)CC5)ccnn4c3)cc2)C1 [Compound 888]	< 100	< 10		
CC(C)N1CC[C@@H](OC(F)F)[C@H](c2ccc(-c3cc4c(N5CCN(C(=O)OC6COC6)CC5)ccnn4c3)cc2)C1 [Compound 889]	< 100	< 10		
CCOC1(c2ccc(-c3cc4c(N5CCN(C(=O)[C@H]6C[C@H](C#N)C6)CC5)ccnn4c3)nc2)CCN(C2COC2)CC1 [Compound 890]	< 100	< 10		
CC(C)N1CCC(COC(F)F)(c2ccc(-c3cc4c(N5CCN(C(=O)OC6COC6)CC5)ccnn4c3)cc2)CC1 [Compound 891]	< 100	< 10		
COC1(c2ccc(-c3cc4c(N5CCN(C(=O)NC(C)C)CC5)ccnn4c3)cc2)CCN([C@@H](C)COC(F)F)CC1 [Compound 892]	< 100	< 10		
COC1(c2ccc(-c3cc4c(N5CCN(C(=O)NC(C)C)CC5)ccnn4c3)cc2)CCN([C@H](C)COC(F)F)CC1 [Compound 893]	< 100	< 10		
